Assay results taken from BigSolDB 2.1.

O=c1cc(CO)occ1O
solubility (mole fraction)
Settings	278.15 K	283.15 K	288.15 K	293.15 K	298.15 K	303.15 K	308.15 K	313.15 K	318.15 K	323.15 K
in THF	0.00384	0.00435	0.00541	0.00663	0.00799	0.00961	0.0116	0.0134	0.017	0.0199
in acetonitrile	0.00062	0.00078	0.00097	0.00122	0.00151	0.00184	0.00226	0.00276	0.00341	0.00424
in isopropanol	0.00213	0.00266	0.0032	0.00392	0.00478	0.00557	0.00667	0.00814	0.00974	0.0116
in methyl acetate	0.00085	0.0011	0.00141	0.00172	0.00213	0.0026	0.00317	0.00385	0.00467	0.00556
in n-butanol	0.00193	0.00242	0.00289	0.00364	0.00452	0.00538	0.00646	0.00779	0.00935	0.011
in n-pentanol	0.00185	0.00222	0.0028	0.00392	0.00417	0.00506	0.00611	0.00733	0.00882	0.0106
in sec-butanol	0.00202	0.00245	0.00315	0.00387	0.00465	0.0057	0.0069	0.00817	0.00981	0.0117
